Consider 22 compounds from patent US10076481B2, “Compositions for treating periodontitis and dental calculus accumulation” (The Research Foundation for the State University of New York, priority 2016, dated 2018).

What all share (assay type): cell-based
The subject of assay [1] is human salivary sediment. Briefly: pH response of salivary sediment incubated with individual amino acids, with or without 28 mM urea. Conditions: 37° C. The method, then: (§1) To obtain human salivary sediment for performance of the experiments described herein, paraffin wax (4.02 g) was chewed by human subjects (including some subjects 70+ years of age, where oral alkalinity is commonly more prevalent) to stimulate the flow of saliva. Prior to the experiment, the subjects fasted for 12 hours and abstained from oral hygiene for at least 24 hours (to enable spontaneous dental plaque bacterial growth and buildup on their teeth and other oral surfaces (Kleinberg. I., 1967, Arch. Oral Biol., 1457-1473)). As a result of this process, oral bacteria were dislodged by the inert paraffin wax from the teeth and oral soft tissue surfaces in the mouths of the human subjects. About 40 ml of whole saliva was then collected from each subject by expectoration into a 50 ml polypropylene centrifuge tube chilled by surrounding it with cracked ice (Korayem, M. R., Traudt, M., and Kleinberg, I., 1990; Sandham, H. J. and Kleinberg, I., 1973).
(§2) The saliva collected was centrifuged at 1740 g in an International Equipment Company clinical centrifuge (Needham Heights, Mass.) for 15 min. at 4° C. The supernatant was decanted and discarded. To wash the remaining bacterial sediment, 40 ml of ice-cold distilled water was added and mixed in a vortex mixer. The resulting sediment-water mixture was centrifuged at 1740 g for 15 min. at 4° C. The supernatant was again decanted and discarded. This bacterial sediment washing procedure was repeated twice. To the washed bacterial sediment, 10 ml of deionized water was added and the composition was then mixed briefly and thoroughly in a vortex mixer. The sediment was transferred to a 15 ml polypropylene centrifuge tube. The resulting suspension was centrifuged at 1740 g for 15 min. at 4° C. and the resulting supernatant was aspirated and discarded.
To the packed 1.0 ml of salivary sediment obtained after centrifugation, 1.0 ml of deionized water was added to make a 50% salivary sediment suspension for the preparation of the following standard incubation mixtures: salivary sediment at 16.7% (v/v), with and without added individual amino acids: serine, glycine, alanine, valine, and/or histidine, etc. at either a 90 or 120 mM concentration; and leucine, isoleucine, aspartic acid, glutamine, cysteine, cystine, lysine, arginine, tyrosine, phenylalanine, threonine, proline, methionine, tyrosine, glutamine, and/or asparagine, each at 9 mM. These mixtures were each prepared in the presence or absence of 28 mM urea, which has a relatively high pH.
The initial pH of the incubation mixtures was carefully adjusted to or near 7.0 with either 1.0 M NaOH or 1.0 M HCl. Each bacterial mixture was then incubated overnight in a water bath at 37° C. The pH of each mixture was then determined using a combined pH and reference electrode (Radiometer Analytical SAS, Villeurbanne, France) at pre-determined time intervals.

The subject of assay [2] is human salivary sediment. Put plainly: pH response of salivary sediment when initial pH was not adjusted to neutrality. The method, then:
Separately, incubation mixtures containing salivary sediment at 16.7% (v/v), 238 mM serine, and 6 mM sodium phytate, with or without 6.7 mM urea, were prepared and incubated without adjusting the initial pH to or near 7.0, except for salivary sediment mixed with deionized water, which was adjusted to pH 8.10 with 1 M NaOH. Determination of the pH of each of these experimental entities were carried out at pre-determined time intervals (i.e., at 0 min., 15 min., 30 min., 1 h, 2 h, 3 h, 4 h, and 21 h) with a pH meter (Radiometer Copenhagen, type PHM26, Radiometer America, Westlake, Ohio) and a combination pH electrode (Radiometer Analytical, Cedex, France).

The test system of assay [3] is human salivary sediment. Briefly: pH response of salivary sediment with serine, with or without sodium phytate and 6.7 mM urea. The method, then: as §1, §2
Separately, incubation mixtures containing salivary sediment at 16.7% (v/v) and 6.7 or 8.3 mM serine in the presence or absence of 6.7 mM urea, 20 or 25 mM serine and/or 3 mM sodium phytate (Sigma-Aldrich, St. Louis, Mo.), both in the presence or absence of 6.7 mM urea were prepared. Mixtures were incubated overnight at 37° C. in a water bath incubator (Kleinberg, I. and Hall, G., 1968; Salako, N. O. and Kleinberg, I., 1989), after adjusting the initial pH to or near 7.0 with 1N NaOH or 1N HCl.
Separately, incubation mixtures containing salivary sediment at 16.7% (v/v), 20 or 25 mM serine, and 6 mM sodium phytate were prepared in the presence or absence of 6.7 mM urea. Mixtures were incubated overnight at 37° C. in a water bath incubator, after adjusting the initial pH to or near 7.0 with 1N NaOH or 1N HCl. […]

The mark [4] stands for this setting: 9 mM amino acid + 28 mM urea, 4 hours.
Setting [5] is: 9 mM amino acid + 28 mM urea, 21 hours (overnight).
[6] abbreviates: 9 mM amino acid, without urea, 21 hours (overnight).
[7] abbreviates: 9 mM amino acid, without urea, 4 hours.
Where [8] appears, read: 90 mM amino acid + 28 mM urea, 4 hours.
[9] abbreviates: 120 mM amino acid + 28 mM urea, 4 hours.
Setting [10] is: 90 mM amino acid + 28 mM urea, 21 hours.
Setting [11] is: 120 mM amino acid + 28 mM urea, 21 hours.

Turning to `N[C@@H](Cc1ccc(O)cc1)C(=O)O` [tyrosine], the “pH of salivary sediment” value with human salivary sediment [1] (setting [4]) was 8.87; in the assay on human salivary sediment [1] (setting [5]), 8.62.
Consider `CSCC[C@H](N)C(=O)O` [methionine], for which the results for the “pH of salivary sediment” value with human salivary sediment [1] (setting [4]), with human salivary sediment [1] (setting [5]) and with human salivary sediment [1] (setting [6]) were 9.00, 8.90 and 6.20, respectively.
Consider `CC(C)C[C@H](N)C(=O)O` [leucine], for which the “pH of salivary sediment” value in the assay with human salivary sediment [1] (setting [4]) is 8.85; with human salivary sediment [1] (setting [5]) it was 8.60; in the assay on human salivary sediment [1] (setting [7]), 6.15; in the assay with human salivary sediment [1] (setting [6]), 6.40.
With `N[C@@H](CO)C(=O)O` [serine], the “initial pH of incubation mixture” value is 8.10 in the assay on human salivary sediment [2] (absence of urea, initial pH not adjusted) and 8.10 in the assay with human salivary sediment [2] (with urea, initial pH not adjusted to 7.00). Further, the “pH of incubation mixture” value was 6.50 with human salivary sediment [2] (absence of urea, initial pH not adjusted, 21 hours) and 6.85 with human salivary sediment [2] (with urea, initial pH not adjusted, end of the incubation). Further, the “pH of salivary sediment” value with human salivary sediment [1] (setting [8]) is 8.22; in the assay on human salivary sediment [1] (setting [9]), 8.30; with human salivary sediment [3] (6.70 mM serine + 6.70 mM urea, 21 hours), 7.60; with human salivary sediment [3] (6.70 mM serine, without urea, 4 hours), 5.95; with human salivary sediment [3] (6.70 mM serine, without urea, 21 hours), 6.30; in the assay with human salivary sediment [3] (8.30 mM serine + 6.70 mM urea, 21 hours), 7.50. The “pH of salivary sediment” value worked out at 5.90 in the assay on human salivary sediment [3] (8.30 mM serine, without urea, 4 hours); 6.25 in the assay with human salivary sediment [3] (8.30 mM serine, without urea, 21 hours); 7.15 in the assay with human salivary sediment [3] (20 mM serine, absence of urea, 4 hours (FIG. 16, 6 mM sodium phytate series)); 6.20 with human salivary sediment [3] (20 mM serine, absence of urea, 4 hours, initial pH 6.90 (FIG. 15, 3 mM sodium phytate series)); 6.65 with human salivary sediment [3] (20 mM serine, absence of urea, 21 hours (FIG. 15, 3 mM sodium phytate series)); 6.47 in the assay on human salivary sediment [3] (20 mM serine, absence of urea, 21 hours (FIG. 16, 6 mM sodium phytate series)). The “pH of salivary sediment” value with human salivary sediment [3] (25 mM serine, absence of urea, 4 hours (FIG. 16, 6 mM sodium phytate series)) was 6.17; in the assay with human salivary sediment [3] (25 mM serine, absence of urea, 4 hours, initial pH 7.00 (FIG. 15, 3 mM sodium phytate series)), 6.17; in the assay on human salivary sediment [3] (25 mM serine, absence of urea, 21 hours (FIG. 15, 3 mM sodium phytate series)), 6.70; with human salivary sediment [3] (25 mM serine, absence of urea, 21 hours (FIG. 16, 6 mM sodium phytate series)), 6.45.
Take `NCCCC[C@H](N)C(=O)O` [lysine]: the figures for the “pH of salivary sediment” value in the assay on human salivary sediment [1] (setting [5]) and with human salivary sediment [1] (setting [6]) were 8.70 and “remained at neutrality”, respectively.
Take `C[C@@H](O)[C@H](N)C(=O)O` [threonine]: the “pH of salivary sediment” value was 8.90 in the assay with human salivary sediment [1] (setting [4]), 8.60 in the assay on human salivary sediment [1] (setting [5]), 6.20 in the assay on human salivary sediment [1] (setting [7]) and “remained about unchanged” with human salivary sediment [1] (setting [6]).
Regarding `N=C(N)NCCC[C@H](N)C(=O)O` [arginine], the “pH of salivary sediment” value in the assay with human salivary sediment [1] (setting [5]) turned out to be 8.80; in the assay on human salivary sediment [1] (setting [6]) it was 7.97.
As to `N[C@@H](CSSC[C@H](N)C(=O)O)C(=O)O` [cystine], the “pH of salivary sediment” value worked out at 8.80 in the assay with human salivary sediment [1] (setting [4]), 8.50 with human salivary sediment [1] (setting [5]) and 6.35 in the assay with human salivary sediment [1] (setting [6]).
For `N[C@@H](Cc1ccccc1)C(=O)O` [phenylalanine], the “pH of salivary sediment” value in the assay with human salivary sediment [1] (setting [4]) is reported as 8.87; with human salivary sediment [1] (setting [5]), 8.65.
For the compound `CC[C@H](C)[C@H](N)C(=O)O` [isoleucine], the “pH of salivary sediment” value in the assay with human salivary sediment [1] (setting [4]) was 8.90; with human salivary sediment [1] (setting [5]), 8.65; with human salivary sediment [1] (setting [7]) it was 6.40; in the assay with human salivary sediment [1] (setting [6]) it was 6.62.
For the compound `N[C@@H](CC(=O)O)C(=O)O` [aspartic acid], the “pH of salivary sediment” value turned out to be 8.90 in the assay with human salivary sediment [1] (setting [4]), 8.60 in the assay with human salivary sediment [1] (setting [5]) and 7.00 with human salivary sediment [1] (setting [6]).
Consider `CC(C)[C@H](N)C(=O)O` [valine], for which the “pH of salivary sediment” value with human salivary sediment [1] (setting [8]) stood at 8.90; with human salivary sediment [1] (setting [10]), 8.85; with human salivary sediment [1] (setting [9]) it was 8.80; in the assay on human salivary sediment [1] (setting [11]), 8.70.
For `N[C@@H](CS)C(=O)O` [cysteine], the “pH of salivary sediment” value amounted to 8.75 in the assay with human salivary sediment [1] (setting [4]), 8.55 with human salivary sediment [1] (setting [5]), 6.35 in the assay on human salivary sediment [1] (setting [7]) and 6.60 in the assay with human salivary sediment [1] (setting [6]).
For `C[C@H](N)C(=O)O` [alanine], the “pH of salivary sediment” value is 8.82 with human salivary sediment [1] (setting [8]), 8.80 in the assay on human salivary sediment [1] (setting [10]), 8.72 in the assay with human salivary sediment [1] (setting [9]) and 8.67 in the assay with human salivary sediment [1] (setting [11]).
Regarding `NC(=O)CC[C@H](N)C(=O)O` [glutamine], the “pH of salivary sediment” value in the assay with human salivary sediment [1] (setting [4]) was found to be 9.00; in the assay on human salivary sediment [1] (setting [5]) it was 8.80; in the assay on human salivary sediment [1] (setting [7]), 5.95; in the assay with human salivary sediment [1] (setting [6]), 6.25.
In the case of `N[C@@H](CCC(=O)O)C(=O)O` [glutamic acid], the “pH of salivary sediment” value stood at 8.90 in the assay on human salivary sediment [1] (setting [4]), 8.50 in the assay on human salivary sediment [1] (setting [5]) and 6.70 in the assay on human salivary sediment [1] (setting [6]).
With `NCC(=O)O` [glycine], the “pH of salivary sediment” value in the assay on human salivary sediment [1] (setting [8]) amounted to 8.72; with human salivary sediment [1] (setting [10]), 8.65; in the assay on human salivary sediment [1] (setting [9]), 8.90; in the assay with human salivary sediment [1] (setting [11]), 8.55.
As for `N[C@@H](Cc1c[nH]c2ccccc12)C(=O)O` [tryptophan], the entries for the “pH of salivary sediment” value in the assay on human salivary sediment [1] (setting [4]), with human salivary sediment [1] (setting [5]) and in the assay with human salivary sediment [1] (setting [6]) were 9.00, 8.90 and 6.20, respectively.
For `NC(N)=O` [urea], the “pH of salivary sediment” value was “about 9.0” in the assay with human salivary sediment [1] (28 mM urea alone, 4 hours) and 8.8 in the assay with human salivary sediment [1] (28 mM urea alone, 21 hours).
For the compound `N[C@@H](Cc1c[nH]cn1)C(=O)O` [histidine], the “pH of salivary sediment” value with human salivary sediment [1] (setting [10]) came out at 8.30; in the assay with human salivary sediment [1] (setting [11]) it was 8.22.
In the case of `O=C(O)[C@@H]1CCCN1` [proline], the “pH of salivary sediment” value in the assay with human salivary sediment [1] (setting [4]) was 9.00; in the assay on human salivary sediment [1] (setting [5]) it was 8.80; in the assay with human salivary sediment [1] (setting [7]) it was 6.10; in the assay on human salivary sediment [1] (setting [6]) it was “remained about unchanged”.
On the same counts, the results for `NC(=O)C[C@H](N)C(=O)O` [asparagine] are 8.90, 8.70, 6.55 and 7.35.
